Measurements published in the CheMixHub ionic liquid set.

Assay: xn = mol fraction of the nth substance listed

Cn1cc[nH+]c1.[Cl-] + O
viscosity [mPa·s], 100 kPa
Settings | x1 = 9.081e-05 | x1 = 0.000182 | x1 = 0.0003637 | x1 = 0.0005491 | x1 = 0.0007277 | x1 = 0.0008883 | x1 = 0.001091 | x1 = 0.001364 | x1 = 0.00178
278.15 K | 1.521 | 1.523 | 1.525 | 1.528 | 1.53 | 1.532 | 1.535 | 1.539 | 1.543
283.15 K | 1.308 | 1.309 | 1.311 | 1.313 | 1.314 | 1.316 | 1.319 | 1.32 | 1.323
288.15 K | 1.139 | 1.141 | 1.142 | 1.144 | 1.145 | 1.146 | 1.149 | 1.151 | 1.153
293.15 K | 1.003 | 1.004 | 1.005 | 1.007 | 1.009 | 1.01 | 1.013 | 1.014 | 1.018
298.15 K | 0.89 | 0.891 | 0.892 | 0.894 | 0.896 | 0.897 | 0.899 | 0.901 | 0.904
303.15 K | 0.798 | 0.799 | 0.8 | 0.801 | 0.803 | 0.804 | 0.805 | 0.806 | 0.808
308.15 K | 0.719 | 0.72 | 0.721 | 0.722 | 0.723 | 0.724 | 0.725 | 0.727 | 0.728
313.15 K | 0.652 | 0.653 | 0.654 | 0.655 | 0.656 | 0.657 | 0.658 | 0.659 | 0.662

CCCCCCCCCCCCCCCCCC[n+]1ccn(C)c1.O=S(=O)([N-]S(=O)(=O)C(F)(F)F)C(F)(F)F + CCCCCCCCCCCCCC[n+]1ccn(C)c1.O=S(=O)([N-]S(=O)(=O)C(F)(F)F)C(F)(F)F
Settings | viscosity [mPa·s]
323 K, 101 kPa, x2 = 0.7675 | 62.9

CCCCn1cc[n+](CCOCCOCCOCCOCC[n+]2ccn(CCCC)c2)c1.O=S(=O)([N-]S(=O)(=O)C(F)(F)F)C(F)(F)F.O=S(=O)([N-]S(=O)(=O)C(F)(F)F)C(F)(F)F + CC[n+]1ccn(C)c1.N#C[N-]C#N + O=S(=O)([N-]S(=O)(=O)C(F)(F)F)C(F)(F)F.[Li+]
100 kPa, x1 = 0.1333, x2 = 0.7621
Settings | electrical conductivity [S/m]
298 K | 0.835
303 K | 0.94
313 K | 1.17
323 K | 1.52
333 K | 1.8
343 K | 2.06

CCCC[n+]1ccn(C)c1.O=S(=O)([N-]S(=O)(=O)C(F)(F)F)C(F)(F)F + OCCOCCOCCOCCO
Settings | viscosity [mPa·s]
298.15 K, 101 kPa, x2 = 0 | 45.3

CCCC[n+]1ccn(C)c1.O=S(=O)([N-]S(=O)(=O)C(F)(F)F)C(F)(F)F + O=C1CCCCCO1
100 kPa, frequency 0.01 MHz, x1 = 1
Settings | electrical conductivity [S/m]
293.15 K | 0.337
298.15 K | 0.4
303.15 K | 0.472
308.15 K | 0.552
313.15 K | 0.64
318.15 K | 0.733
323.15 K | 0.835

CC#N + CCCCCCCC(=O)[O-].c1c[nH+]c[nH]1
101.3 kPa, x1 = 1
Settings | viscosity [mPa·s]
298.15 K | 0.333
323.15 K | 0.223

CN(C)C=O + CCCC[n+]1ccn(C)c1.F[P-](F)(F)(F)(F)F
Settings | viscosity [mPa·s]
303.15 K, 101 kPa, x1 = 1 | 0.82

CCCC[n+]1ccn(C)c1.O=S(=O)([N-]S(=O)(=O)C(F)(F)F)C(F)(F)F + CS(C)=O
100 kPa, x2 = 0
Settings | viscosity [mPa·s]
303.15 K | 40.54
318.15 K | 23.75

CCCCCCCCCCCCCCCC[n+]1ccn(C)c1.[Cl-] + CCCCCCCCCCCC[N+](C)(C)C.[Br-] + O
100 kPa, frequency 0.002 MHz
Settings | electrical conductivity [S/m]
303.15 K, x1 = 5.946e-05, x2 = 1.478e-05 | 0.025
303.15 K, x1 = 7.207e-05, x2 = 1.802e-05 | 0.0286
303.15 K, x1 = 9.712e-05, x2 = 2.433e-05 | 0.0355
313.15 K, x1 = 6.13e-06, x2 = 2.433e-05 | 0.0202
313.15 K, x1 = 7.75e-06, x2 = 1.802e-05 | 0.0184
313.15 K, x1 = 2.09e-05, x2 = 2.34e-06 | 0.0146
323.15 K, x1 = 9.19e-06, x2 = 2.126e-05 | 0.0259

CC(CC(C)(C)C)CP(=O)([O-])CC(C)CC(C)(C)C.CCCCCCCCCCCCCC[P+](CCCCCC)(CCCCCC)CCCCCC + CCCCCCCCCCCC
101 kPa
Settings | viscosity [mPa·s]
298.15 K, x1 = 0.4684 | 82
303.15 K, x1 = 1 | 757
308.15 K, x1 = 0.4684 | 56.3
318.15 K, x1 = 0.6647 | 103
338.15 K, x1 = 0.6647 | 50.4
343.15 K, x1 = 0.6647 | 43.4
343.15 K, x1 = 1 | 111

CCCC[n+]1ccn(C)c1.F[P-](F)(F)(F)(F)F + CCCC[n+]1ccn(C)c1.O=S(=O)([N-]S(=O)(=O)C(F)(F)F)C(F)(F)F
Settings | viscosity [mPa·s]
313.15 K, 100 kPa, x1 = 0.5 | 49.8

CC#N + C=C[n+]1ccn(CC(N)=O)c1.O=S(=O)([N-]S(=O)(=O)C(F)(F)F)C(F)(F)F
Settings | viscosity [mPa·s]
323.15 K, 100 kPa, x2 = 0 | 0.262

COCCCn1cc[n+](C)c1.O=S(=O)([N-]S(=O)(=O)C(F)(F)F)C(F)(F)F + O
Settings | viscosity [mPa·s]
283 K, 101 kPa, x1 = 0.8316 | 82.6

CCCC[n+]1ccn(C)c1.F[P-](F)(F)(F)(F)F + OCCOCCOCCOCCO
Settings | viscosity [mPa·s]
298.15 K, 101 kPa, x2 = 0 | 254

CCCC[n+]1ccn(C)c1.F[P-](F)(F)(F)(F)F + NCCO
101 kPa
Settings | electrical conductivity [S/m] | viscosity [mPa·s]
288.15 K, x2 = 0.8022 | 0.1847 | 45
288.15 K, x2 = 0.9028 | 0.1368 | 36
293.15 K, x2 = 0.3052 | 0.222 | 103
293.15 K, x2 = 0.387 | 0.236 | –
293.15 K, x2 = 0.5871 | 0.268 | –
293.15 K, x2 = 0.9592 | 0.1028 | –
298.15 K, x2 = 0 | 0.1851 | 182
298.15 K, x2 = 0.2113 | 0.256 | 92
298.15 K, x2 = 0.3052 | 0.292 | 76
298.15 K, x2 = 0.5352 | 0.337 | –
298.15 K, x2 = 0.8022 | 0.313 | 26
303.15 K, x2 = 0.6984 | 0.434 | 26
308.15 K, x2 = 0.387 | 0.506 | –
308.15 K, x2 = 0.4282 | 0.511 | 35
308.15 K, x2 = 0.4761 | 0.541 | –
313.15 K, x2 = 0.3052 | 0.602 | 35
313.15 K, x2 = 0.4761 | 0.669 | –
313.15 K, x2 = 0.5352 | 0.679 | –
313.15 K, x2 = 0.9592 | 0.25 | –
318.15 K, x2 = 0.3052 | 0.733 | 28
318.15 K, x2 = 0.4282 | 0.773 | 22.1
318.15 K, x2 = 0.4918 | 0.796 | 19.5
323.15 K, x2 = 0 | 0.504 | 48
323.15 K, x2 = 0.3052 | 0.875 | 23.1
323.15 K, x2 = 0.4761 | 0.967 | –
323.15 K, x2 = 0.5352 | 0.977 | –

CCCC[n+]1ccn(C)c1.O=S(=O)([N-]S(=O)(=O)C(F)(F)F)C(F)(F)F + O=C1CCCO1
100 kPa, x2 = 0
Settings | electrical conductivity [S/m] | viscosity [mPa·s]
298.15 K | 0.4 | 50
303.15 K | 0.472 | 41.24

CCCCCCCCCC[n+]1ccn(C)c1.[Br-] + CCCCCCCCn1cc[n+](C)c1.[Br-] + O
298.15 K, 101 kPa
Settings | electrical conductivity [S/m]
x2 = 0.001457, x1 = 0.0002702 | 0.7
x2 = 0.002534, x1 = 0.0004683 | 1.01
x2 = 0.003323, x1 = 0.0006123 | 1.2
x2 = 0.003985, x1 = 0.0007203 | 1.33
x2 = 0.00477, x1 = 0.0008642 | 1.45
x2 = 0.005466, x1 = 0.0009901 | 1.55

CN(C)C=O + CC[n+]1ccn(C)c1.[Cl-]
Settings | viscosity [mPa·s]
288.15 K, 101 kPa, x1 = 1 | 0.94

CN(C)C=O + CCCCCCCC[n+]1ccn(C)c1.F[P-](F)(F)(F)(F)F
101 kPa, x2 = 0
Settings | viscosity [mPa·s]
293.15 K | 0.881
303.15 K | 0.771
313.15 K | 0.668
323.15 K | 0.605
333.15 K | 0.553
353.15 K | 0.479
363.15 K | 0.447
